# From patent publication US10383868B2, “Quinoline containing compounds and their use for treating endoplasmic reticulum stress-related diseases” (priority 2015, dated 2019)
# Key:
# [1] = molecular target: SERCA; assay: Activation of SERCA, NADH-linked, enzyme-coupled ATPase assay with SR vesicles; format: biochemical; settings: concentration required for 50% activation of the maximum Vmax, pH 7.0, 5 mM ATP
# Description: Test compounds were characterized over a range of concentrations using an NADH-linked, enzyme-coupled ATPase assay. Each well contained […] of SR vesicles (optimized for skeletal or cardiac SR, respectively), 50 mM MOPS (pH 7.0), 100 mM KCl, 5 mM MgCl2, 1 mM EGTA, 0.2 mM NADH, 1 mM phosphoenol pyruvate, 5 IU pyruvate kinase, 5 IU lactate dehydrogenase, and […] A23187 (a calcium ionophore), and CaCl2 was added to set free [Ca^2+] to the specific values. The assay was started upon addition of ATP at a final concentration of 5 mM, and read in a SpectraMax Plus microplate spectrophotometer and the ATPase activities were fitted using the Hill function. EC50 values were determined as the concentrations of the test compounds that were required for 50% activation of the maximum Vmax.
# [2] = test system: Ob/ob mice; assay: Effect of a SERCA agonist on the level of blood glucose in ob/ob mice; format: in vivo; settings: n=3; for Blood Glucose Day 0: Day 0 (baseline), fasting glucose, 50 mg/kg i.p. group; for Blood Glucose Day 4: Day 4, fasting glucose, 50 mg/kg i.p. once a day
# Description: Ob/ob mice (10 weeks old, n=3) are intraperitoneally (i.p.) injected with 100 μL of a solution containing 0 (vehicle), 10 or 50 mg/kg of a test compound once a day for a total of 5 days. Fasting glucose is measured at baseline and 10 hrs after the administration of the test compound. Glucose levels are measured in blood samples drawn from the tail vein using the OneTouch Ultra 2 Meter (LifeScan, Inc.).
EC50 [1] [µM],Compound,Blood Glucose Day 0 [2] [mg/dL],Blood Glucose Day 4 [2] [mg/dL]
0.6,"Cc1ccc2cccc(C(=O)Nc3ccc(OC(C)C)cc3)c2n1 [Compound A1, N-(4-Isopropoxyphenyl)-2-methylquinoline-8-carboxamide]",319,348
1.2,Cc1ccc2cccc(C(=O)Nc3cc(Br)cs3)c2n1 [Compound B1],318,333
1,Cc1ccc2cccc(C(=O)Nc3ccc(Br)s3)c2n1 [Compound B2],320,215
